Laboratory results: ChEMBL document CHEMBL1938328, “A review on coumarins as acetylcholinesterase inhibitors for Alzheimer's disease” (Bioorg Med Chem, 2012)
Structures can show the parent of a compound that is named as a salt.

What was measured:
[1] = Selectivity ratio of IC50 for AChE to IC50 for BChE
Acetylcholinesterase [2] = target: Acetylcholinesterase (Homo sapiens, UniProt P22303); assay: Inhibition of AChE
Acetylcholinesterase [3] = target: T1, Acetylcholinesterase (Rattus norvegicus, UniProt P37136); assay: Inhibition of AChE in rat brain cortical homogenate; type: tissue-based
T1 sequence (P37136 whole entry): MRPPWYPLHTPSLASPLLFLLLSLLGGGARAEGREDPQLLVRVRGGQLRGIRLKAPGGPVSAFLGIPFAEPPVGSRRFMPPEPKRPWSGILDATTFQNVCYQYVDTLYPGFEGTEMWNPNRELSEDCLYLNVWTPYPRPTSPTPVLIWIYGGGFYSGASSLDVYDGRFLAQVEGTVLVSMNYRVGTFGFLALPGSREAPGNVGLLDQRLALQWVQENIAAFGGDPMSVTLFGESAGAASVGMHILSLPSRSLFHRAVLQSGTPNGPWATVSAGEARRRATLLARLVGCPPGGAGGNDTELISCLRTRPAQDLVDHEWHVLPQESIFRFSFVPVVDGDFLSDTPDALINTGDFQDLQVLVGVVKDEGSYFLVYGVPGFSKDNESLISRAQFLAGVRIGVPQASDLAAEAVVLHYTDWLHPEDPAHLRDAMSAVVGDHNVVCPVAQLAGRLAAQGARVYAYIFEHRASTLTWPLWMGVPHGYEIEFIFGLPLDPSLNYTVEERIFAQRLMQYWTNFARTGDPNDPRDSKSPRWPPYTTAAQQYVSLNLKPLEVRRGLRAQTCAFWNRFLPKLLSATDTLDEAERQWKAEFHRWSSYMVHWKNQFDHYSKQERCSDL

Sequence of Acetylcholinesterase (Homo sapiens, UniProt P22303) (P22303 whole entry): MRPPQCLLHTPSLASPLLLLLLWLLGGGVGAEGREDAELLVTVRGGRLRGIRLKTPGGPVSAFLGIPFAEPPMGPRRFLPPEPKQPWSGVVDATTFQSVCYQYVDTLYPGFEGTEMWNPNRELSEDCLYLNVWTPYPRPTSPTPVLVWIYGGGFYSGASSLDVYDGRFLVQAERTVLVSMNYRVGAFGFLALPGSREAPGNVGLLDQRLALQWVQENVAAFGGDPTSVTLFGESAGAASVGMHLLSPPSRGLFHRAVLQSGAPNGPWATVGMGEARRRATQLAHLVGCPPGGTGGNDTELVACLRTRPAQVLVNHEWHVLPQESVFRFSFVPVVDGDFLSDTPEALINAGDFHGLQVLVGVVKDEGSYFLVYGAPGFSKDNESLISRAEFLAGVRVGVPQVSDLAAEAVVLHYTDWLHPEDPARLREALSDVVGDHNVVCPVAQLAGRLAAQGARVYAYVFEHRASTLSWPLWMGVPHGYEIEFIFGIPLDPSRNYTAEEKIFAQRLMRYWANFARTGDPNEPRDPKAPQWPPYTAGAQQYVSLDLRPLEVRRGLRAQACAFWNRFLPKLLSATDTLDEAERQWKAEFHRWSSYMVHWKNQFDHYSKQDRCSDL

Compound | Ratio IC50 [1] | IC50 (Acetylcholinesterase [2]) | IC50 (Acetylcholinesterase [3])
COc1cc2oc(=O)c(OCCCCOc3cc(O)cc(N(C)C)c3)c(C)c2cc1OC | > 300000 | 0.236 nM | 
COc1cc2c(C)c(OC)c(=O)oc2cc1OCCCCOc1cc(O)cc(N(C)C)c1 |  | 275 nM | 
COc1cc2oc(=O)c(C)c(C)c2cc1OCCCN1CCN(c2ccccc2OC)CC1 [ENSACULIN HYDROCHLORIDE] |  |  | 360 nM
COc1ccccc1NCc1cc(=O)oc2cc3oc4ccccc4c3cc12 |  | 190 nM | 
